Laboratory results reported in ChEMBL document CHEMBL4622979, “Non-rigid Diarylmethyl Analogs of Baloxavir as Cap-Dependent Endonuclease Inhibitors of Influenza Viruses” (J Med Chem, 2020).
The source made the active and inactive calls. No cut-off for these calls is given here.

Key:
[1] = Oral bioavailability in CD1 mouse at 10 mg/kg administered as single dose by LC-MS/MS analysis; format: ADME, organism-based; settings: in vivo
[2] = Ratio of Cmax in CD1 mouse lung to plasma at 10 mg/kg, po administered as single dose by LC-MS/MS analysis; format: ADME, organism-based; settings: lung and plasma
[3] = Stability in rat plasma assessed as parent compound remaining at 1 uM measured after 4 hrs by LC-MS/MS analysis; format: ADME, cell-free; settings: read-out: Stability
[4] = AUClast in CD1 mouse lung at 10 mg/kg, po administered as single dose by LC-MS/MS analysis; format: ADME, organism-based; settings: in vivo
Influenza A virus [5] = assay: Antiviral activity against Influenza A/California/04/2009 (H1N1)pdm09 infected in MDCK cells assessed as protection against virus-induced cell death by CellTiter-Glo assay; format: functional, organism-based; settings: A/California/04/2009(H1N1) pdm09, MDCK
[6] = Stability in mouse plasma assessed as parent compound remaining at 1 uM measured after 4 hrs by LC-MS/MS analysis; format: ADME, cell-free; settings: read-out: Stability
[7] = AUClast in CD1 mouse plasma at 2 mg/kg, iv administered as single dose by LC-MS/MS analysis; format: ADME, organism-based; design: dose 2 mg/kg, route intravenous, time 0 - last
[8] = Cytotoxicity against MDCK cells assessed as reduction in cell viability by CellTiter-Glo assay; format: cell-based, Canis lupus familiaris; settings: dog
[9] = Selectivity index, ratio of CC50 for MDCK cells to EC50 for Influenza A/California/04/2009 (H1N1)pdm09 virus infected in MDCK cells; format: toxicity, cell-based; settings: dog, read-out: Ratio CC50/EC50
HEK-293T [10] = assay: (§1) Inhibition of CEN polymerase activity in Influenza A/California/04/2009 (H1N1)pdm09 NP/PA/PB1/PB2 complex transfected in HEK293T cells co-expressing beta-galactosidase at 100 nM preincubated for 3 hrs followed by viral gene transfection and measured after 24 hrs by ONPG substrate based luciferase reporter gene mini-replicon assay relative to control; format: cell-based; settings: Influenza A virus (A/California/04/2009(H1N1))
HEK-293T [11] = assay: as §1, with “25” for “100”; format: cell-based; settings: Influenza A virus (A/California/04/2009(H1N1))
[12] = Cmax in CD1 mouse plasma at 10 mg/kg, po administered as single dose by LC-MS/MS analysis; format: ADME, organism-based; design: dose 10 mg/kg, route oral
[13] = AUClast in CD1 mouse plasma at 10 mg/kg, po administered as single dose by LC-MS/MS analysis; format: ADME, organism-based; design: dose 10 mg/kg, route oral, time 0 - last
[14] = Cmax in CD1 mouse lung at 10 mg/kg, po administered as single dose by LC-MS/MS analysis; format: ADME, organism-based; design: dose 10 mg/kg, route oral
[15] = Stability in mouse liver S9 fraction assessed as parent compound remaining at 1 uM measured after 4 hrs by LC-MS/MS analysis; format: ADME, subcellular; settings: read-out: Stability
[16] = Ratio of AUClast in CD1 mouse lung to plasma at 10 mg/kg, po administered as single dose by LC-MS/MS analysis; format: ADME, organism-based; settings: lung and plasma, read-out: Ratio AUC
[17] = Stability in rat liver S9 fraction assessed as parent compound remaining at 1 uM measured after 4 hrs by LC-MS/MS analysis; format: ADME, subcellular; settings: read-out: Stability
[18] = Stability in human plasma assessed as parent compound remaining at 1 uM measured after 4 hrs by LC-MS/MS analysis; format: ADME, cell-free; settings: read-out: Stability
[19] = Stability in human liver S9 fraction assessed as parent compound remaining at 1 uM measured after 4 hrs by LC-MS/MS analysis; format: ADME, subcellular; settings: read-out: Stability
Influenza A virus H3N2 = assay: Antiviral activity against Influenza A virus (A/Fukui/20/2004 (H3N2)) infected in MDCK cells assessed as protection against virus-induced cell death measured 72 to 96 hrs post-infection by CellTiter-Glo assay; format: functional, organism-based
Influenza B virus [20] = assay: Antiviral activity against Victoria lineage of Influenza B virus (B/Brisbane/60/2008) infected in MDCK cells assessed as protection against virus-induced cell death measured 72 to 96 hrs post-infection by CellTiter-Glo assay; format: functional, organism-based
Influenza A virus [21] = assay: Antiviral activity against Influenza A virus (A/Denmark/524/2009(H1N1)) pdm09 infected in MDCK cells assessed as protection against virus-induced cell death measured 72 to 96 hrs post-infection by CellTiter-Glo assay; format: functional, organism-based
Influenza B virus [22] = assay: Antiviral activity against Yamagata lineage of Influenza B virus (B/Florida/4/2006) infected in MDCK cells assessed as protection against virus-induced cell death measured 72 to 96 hrs post-infection by CellTiter-Glo assay; format: functional, organism-based
[23] = Stability in simulated intestinal fluid assessed as parent compound remaining at 1 uM measured after 4 hrs at pH 1.2 by LC-MS/MS analysis; format: physicochemical; settings: read-out: Stability
[24] = Stability in simulated gastric fluid assessed as parent compound remaining at 1 uM measured after 4 hrs at pH 1.2 by LC-MS/MS analysis; format: physicochemical; settings: read-out: Stability
[25] = Cmax in CD1 mouse lung assessed as (12aR)-12-[Bis(4-fluorophenyl)methyl]-7-hydroxy-3,4,12,12a-tetrahydro-1H-[1,4]oxazino[3,4-c]pyrido[2,1-f][1,2,4]triazine-6,8-dione level at 15 mg/kg, po administered as single dose by LC-MS/MS analysis; format: ADME, organism-based; design: dose 15 mg/kg, route oral; settings: in vivo
[26] = AUClast in CD1 mouse lung assessed as (12aR)-12-[Bis(4-fluorophenyl)methyl]-7-hydroxy-3,4,12,12a-tetrahydro-1H-[1,4]oxazino[3,4-c]pyrido[2,1-f][1,2,4]triazine-6,8-dione level at 15 mg/kg, po administered as single dose by LC-MS/MS analysis; format: ADME, organism-based; settings: in vivo
[27] = Cmax in CD1 mouse plasma assessed as (12aR)-12-[Bis(4-fluorophenyl)methyl]-7-hydroxy-3,4,12,12a-tetrahydro-1H-[1,4]oxazino[3,4-c]pyrido[2,1-f][1,2,4]triazine-6,8-dione level at 15 mg/kg, po administered as single dose by LC-MS/MS analysis; format: ADME, organism-based; design: dose 15 mg/kg, route oral; settings: in vivo
[28] = Ratio of Cmax in CD1 mouse lung to plasma assessed as (12aR)-12-[Bis(4-fluorophenyl)methyl]-7-hydroxy-3,4,12,12a-tetrahydro-1H-[1,4]oxazino[3,4-c]pyrido[2,1-f][1,2,4]triazine-6,8-dione level at 15 mg/kg, po administered as single dose by LC-MS/MS analysis; format: ADME, organism-based; settings: other tissue
[29] = Ratio of AUClast in CD1 mouse lung to plasma assessed as (12aR)-12-[Bis(4-fluorophenyl)methyl]-7-hydroxy-3,4,12,12a-tetrahydro-1H-[1,4]oxazino[3,4-c]pyrido[2,1-f][1,2,4]triazine-6,8-dione level at 15 mg/kg, po administered as single dose by LC-MS/MS analysis; format: ADME, organism-based; settings: other tissue
[30] = AUClast in CD1 mouse plasma assessed as (12aR)-12-[Bis(4-fluorophenyl)methyl]-7-hydroxy-3,4,12,12a-tetrahydro-1H-[1,4]oxazino[3,4-c]pyrido[2,1-f][1,2,4]triazine-6,8-dione level at 15 mg/kg, po administered as single dose by LC-MS/MS analysis; format: ADME, organism-based; design: dose 15 mg/kg, time 0 - last, route oral; settings: in vivo
[31] = Oral bioavailability in CD1 mouse assessed as (12aR)-12-[Bis(4-fluorophenyl)methyl]-7-hydroxy-3,4,12,12a-tetrahydro-1H-[1,4]oxazino[3,4-c]pyrido[2,1-f][1,2,4]triazine-6,8-dione level at 15 mg/kg administered as single dose by LC-MS/MS analysis; format: ADME, organism-based; settings: in vivo

| Structure (SMILES) | bioavailability [1] [%] | remaining at 4 h, 1 µM [3] [%] | EC50 (Influenza A virus [5]) [nM] | remaining at 4 h, 1 µM [6] [%] | AUC(0-t) [7] [ng·h/mL] | CC50 [8] [nM] | selectivity ratio [9] | inhibition (HEK-293T [10]) [%] | inhibition (HEK-293T [11]) [%] | Cmax [12] [ng/mL] | AUC(0-t) [13] [ng·h/mL] | remaining at 4 h, 1 µM [15] [%] | remaining at 4 h, 1 µM [17] [%] | remaining at 4 h, 1 µM [18] [%] | remaining at 4 h, 1 µM [19] [%] | other results |
| --- | --- | --- | --- | --- | --- | --- | --- | --- | --- | --- | --- | --- | --- | --- | --- | --- |
| O=C1c2c(O)c(=O)ccn2N([C@H](c2ccccc2)c2ccc(F)c(F)c2)[C@@H]2COCCN12 | 2.7 | 94.4 | 15.4 | 114 | 2210 | 15900 | > 1000 | 83.9 | 42.2 | 115 | 303 | 95.2 | 95.4 | 85.7 | 104 | Kp [2]: 2.3; AUClast [4]: 384 ng·h/g; Cmax [14]: 264 ng/g; Kp [16]: 1.3 |
| O=C1c2c(O)c(=O)ccn2N(C(c2ccc(F)c(F)c2)c2ccc(F)c(F)c2)[C@@H]2COCCN12 |  |  | 22.6 |  |  | 13800 | 611 | 80.9 | 50.2 |  |  |  |  |  |  |  |
| CSc1ccccc1[C@@H](c1ccc(F)c(F)c1)N1[C@@H]2COCCN2C(=O)c2c(O)c(=O)ccn21 |  |  | 146 |  |  | 9800 | 67 | 13.2 | 3.1 |  |  |  |  |  |  |  |
| CC(C)[N+](C)(CCOC(=O)C1c2ccccc2Oc2ccccc21)C(C)C [PROPANTHELINE] |  | 74.3 |  | 1.21 |  |  |  |  |  |  |  |  |  | 1.28 |  |  |
| CSc1ccccc1[C@H](c1ccc(F)c(F)c1)N1[C@@H]2COCCN2C(=O)c2c(O)c(=O)ccn21 |  |  | 32.1 |  |  | 16400 | 511 | 74.1 | 22.9 |  |  |  |  |  |  |  |
| O=C1c2c(O)c(=O)ccn2N([C@@H](c2ccccc2)c2ccc(F)c(F)c2)[C@@H]2COCCN12 | 17.6 | 85.8 | 22.5 | 105 | 927 | 12100 | 538 | 63.2 | 28.4 | 332 | 817 | 92.4 | 99.6 | 90.3 | 113 | Kp [2]: 1.5; AUClast [4]: 735 ng·h/g; EC50 (Influenza A virus H3N2; A/Fukui/20/2004, MDCK): 3.6 to 12.5 nM; EC50 (Influenza B virus [20]; B/Brisbane/60/2008, MDCK): 5100 to 28300 nM; EC50 (Influenza A virus [21]; A/Denmark/524/2009(H1N1) pdm09, MDCK): 3.6 to 12.5 nM; Cmax [14]: 501 ng/g; Kp [16]: 0.9; EC50 (Influenza B virus [22]; B/Florida/4/2006, MDCK): 5100 to 28300 nM |
| O=C(O)CCCc1ccc(N(CCCl)CCCl)cc1 [CHLORAMBUCIL] |  |  |  |  |  |  |  |  |  |  |  |  |  |  |  | remaining at 4 h, 1 µM [23]: 0.04%; remaining at 4 h, 1 µM [24]: 97.2% |
| O=C1c2c(O)c(=O)ccn2N([C@@H]2c3ccccc3SCc3c2ccc(F)c3F)[C@@H]2COCCN12 [BALOXAVIR] | 3 | 73.9 | 0.9 | 45.4 | 354 | 5600 | > 1000 | 99.7 | 99.6 | 11.9 | 79.9 | 87.7 | 85 | 89.9 | 93.5 | Activity (Influenza A virus H3N2): Active; Activity (Influenza B virus [20]): Active; Activity (Influenza A virus [21]): Active; Activity (Influenza B virus [22]): Active |
| COC(=O)OCOc1c2n(ccc1=O)N(C(c1ccc(F)cc1)c1ccc(F)cc1)[C@@H]1COCCN1C2=O |  |  |  |  |  |  |  |  |  |  |  |  |  |  |  | Cmax [25]: 708 ng/g; AUClast [26]: 3302 ng·h/g; remaining at 4 h, 1 µM [23]: 99.7%; Cmax [27]: 647 ng/mL; Ratio [28]: 1.1; Ratio AUC [29]: 1; remaining at 4 h, 1 µM [24]: 98.4%; AUClast [30]: 3186 ng·h/mL; F [31]: 39.6% |
| O=C1c2c(O)c(=O)ccn2N(C(c2ccc(F)cc2)c2ccc(F)cc2)[C@@H]2COCCN12 | 22.6 |  | 13.4 |  | 1070 | 13300 | 993 | 80 | 45.4 | 308 | 1820 | 103 | 98.3 |  | 97 | Kp [2]: 3; AUClast [4]: 4490 ng·h/g; remaining at 4 h, 1 µM [23]: 96%; remaining at 4 h, 1 µM [24]: 87.3%; Cmax [14]: 935 ng/g; Kp [16]: 2.5 |
| O=c1ccc2ccc(O)cc2o1 [UMBELLIFERONE] |  |  |  |  |  |  |  |  |  |  |  | 0.83 | 2.74 |  | 0.39 |  |
